Patent US7429564B2, “Oral insulin therapy” (Emisphere Technologies, Inc., priority 2002, dated 2008)
Read-outs that look alike come from different tables or passages of the source.

Legend:
plasma C-peptide = assay: Example 6: plasma C-peptide during glucose clamp; type: in vivo, human; details: for C-peptide level, mean: 15 U SC
Procedure: During each study period, blood samples were collected for the determination of plasma insulin concentrations, plasma C-peptide and plasma glucose concentration. Sampling occurred from 6 hrs before dosing and continued for 6 hrs after the dose was administered. Blood samples were collected via a venous cannula. Blood samples were collected relative to the administration of the study drug (1) prior to study of drug administration at −1 and −0.5 hrs, (2) immediately after study drug administration (time 0), and (3) post administration of the study drug at 10, 20, 30, 40, 50 min, and 1, 1.25, 1.5, 1.75, 2, 2.5, 3, 3.5, 4, 5, and 6 hrs
Blood samples were collected from each patient during each treatment period for determination of plasma insulin concentrations, plasma C-peptide, and plasma glucose. Glucose infusion rates and blood glucose measurements were measured continuously during the glucose clamp procedure. All treatments were identical in their sample collection and monitoring periods for all visits. After a 6 hours pre-dose baseline period for stabilization of blood glucose concentrations at the desired clamp level, the clamp procedure after study drug administration lasted 6 hours.

Genotoxicity studies = details: four studies
Procedure: (§1) The present invention comprising compositions of insulin and the delivery agent 4-CNAB was evaluated for safety and toxicity in a nonclinical program that included pharmacological screening, pharmacokinetic profiling, and toxicity assessments in rats and monkeys.

[1] = tested on: primary molecular targets; assay: Receptor binding screening assays
Procedure: as §1

[2] = Example 8: food effect on 4-CNAB pharmacokinetics, type 1 diabetes patients; type: in vivo, human; details: for AUC / Cmax / Tmax / AUC(0-inf) / half-life: human, plasma; for AUC(0-inf): read-out: Plasma 4-CNAB AUC0-inf; for half-life: read-out: Plasma 4-CNAB t1/2 (converted)
Procedure: A single-center, open label, randomized, single dose, 3-way cross-over study was conducted in type 1 diabetes mellitus patients to investigate the effect of food on the absorption and pharmacokinetics of insulin after a single dose of oral 4-CNAB/insulin, and to determine the effect of food on the pharmacodynamics of glucose and C-peptide after a single oral dose of 4-CNAB/insulin.
For diabetic patients, the study consisted of an eligibility screening period, three study periods and a follow-up exam at the conclusion of the last period. The three study periods included the following: administration of single doses of 4-CNAB/insulin followed by fasting (treatment A), followed by an ADA breakfast […] after dosing (treatment B), and followed by an ADA breakfast […] after dosing (treatment C). The study was conducted using an open label, randomized, crossover design with an interval of at least 7 days between treatments. The patients fasted overnight. The type 1 diabetics were randomized to treatment A or […] in periods 1 and 2. In period 3, all diabetics received treatment C. A total of eight type 1 diabetic patients were enrolled. As a control group, two healthy volunteers were enrolled.
The following treatments were administered to the type 1 diabetics according to the randomization schedule (see below) • a) 400 mg 4-CNAB/300 IU insulin followed by fasting; • b) 400 mg 4-CNAB/300 IU insulin followed by an ADA breakfast 30 minutes after dosing; • c) 400 mg 4-CNAB/300 IU insulin followed by an ADA breakfast 20 minutes after dosing.
Blood samples for pharmacokinetic analysis of 4-CNAB and insulin were drawn 30, 15 and 5 minutes prior to and at 10, 20, 30, 40, 50, 60, 75, 90, 105, 120, 150, 180, 210, and 240 minutes after 4-CNAB/insulin administration (17 samples per subject per period). Blood samples for plasma glucose were drawn 30, 15 and 5 minutes prior to and at 10, 20, 30, 40, 50, 60, 75, 90, 105, 120, 150, 180, 210, and 240 minutes after administration (17 samples per subject per period). Blood samples for C-peptide were drawn 30 and 5 minutes prior to and 30, 60, 90, 120, 180 and 240 minutes after administration (8 samples per subject per period).

[3] = Nonclinical pharmacokinetic studies of 4-CNAB; type: in vivo; details: mice, rats and monkeys
Procedure: as §1

[4] = oral, period 0-20 minutes post-dose, Breakfast 20 min post-dose
[5] = oral, period 0-20 minutes post-dose, Breakfast 30 min post-dose
[6] = oral, period 0-20 minutes post-dose, Fasting
[7] = oral, period 0-30 minutes post-dose, Breakfast 20 min post-dose
[8] = oral, period 0-30 minutes post-dose, Breakfast 30 min post-dose
[9] = oral, period 0-30 minutes post-dose, Fasting
[10] = oral, period 0-3 hours post-dose, Breakfast 20 min post-dose
[11] = oral, period 0-3 hours post-dose, Breakfast 30 min post-dose
[12] = oral, period 0-3 hours post-dose, Fasting
[13] = po, 400 mg, 400 mg 4-CNAB/300 IU insulin oral, Breakfast 20 min post-dose
[14] = po, 400 mg, 400 mg 4-CNAB/300 IU insulin oral, Breakfast 30 min post-dose
[15] = po, 400 mg, 400 mg 4-CNAB/300 IU insulin oral, Fasting

## SC insulin: human regular insulin injected subcutaneously (Humulin R or equivalent; Calbiochem insulin in the rat studies)
Plasma C-peptide; 15 IU s.c., 300 IU oral and 150 IU oral
  Change in C-peptide during treatment periods: no significant changes
Plasma C-peptide; 10 minutes
  C-peptide level, mean: 1.05 nmol/L
Plasma C-peptide; 20 minutes
  C-peptide level, mean: 1.07 nmol/L
Plasma C-peptide; 30 minutes
  C-peptide level, mean: 1.09 nmol/L
Plasma C-peptide; 40 minutes
  C-peptide level, mean: 1.11 nmol/L
Plasma C-peptide; 50 minutes
  C-peptide level, mean: 1.05 nmol/L
Plasma C-peptide; 60 minutes
  C-peptide level, mean: 1.04 nmol/L
Plasma C-peptide; 75 minutes
  C-peptide level, mean: 1.07 nmol/L
Plasma C-peptide; 90 minutes
  C-peptide level, mean: 1.03 nmol/L
Plasma C-peptide; 105 minutes
  C-peptide level, mean: 1.01 nmol/L
Plasma C-peptide; 120 minutes
  C-peptide level, mean: 0.99 nmol/L
Plasma C-peptide; 150 minutes
  C-peptide level, mean: 1.01 nmol/L
Plasma C-peptide; 180 minutes
  C-peptide level, mean: 0.99 nmol/L
Plasma C-peptide; 210 minutes
  C-peptide level, mean: 0.97 nmol/L
Plasma C-peptide; 240 minutes
  C-peptide level, mean: 0.94 nmol/L
Plasma C-peptide; 300 minutes
  C-peptide level, mean: 0.96 nmol/L
Plasma C-peptide; 360 minutes
  C-peptide level, mean: 0.92 nmol/L
Plasma C-peptide; Time 0
  C-peptide level, mean: 1.04 nmol/L
Plasma C-peptide; −30 minutes
  C-peptide level, mean: 1.05 nmol/L
Plasma C-peptide; −60 minutes
  C-peptide level, mean: 1.02 nmol/L

## O=C(O)CCCNC(=O)c1ccc(Cl)cc1O [4-CNAB, 4-[(4-chloro, 2-hydroxybenzoyl)amino]butanoic acid]
Genotoxicity studies
  Genotoxicity findings: no positive findings
[1]
  Activity in receptor binding screening: did not demonstrate potential activity in any of the primary molecular targets
[2]; breakfast 30 or 20 minutes after dosing
  Effect of food intake on 4-CNAB pharmacokinetics: no effect on the pharmacokinetics of 4-CNAB
[2]; [4]
  AUC: 2.8 µg·h/mL
  Cmax: 20.6 µg/mL
[2]; oral, period 0-20 minutes post-dose, Breakfast 20 min post-dose, read-out: Plasma 4-CNAB tmax
  Tmax: 19.8 min
[2]; [5]
  AUC: 2.27 µg·h/mL
  Cmax: 18.8 µg/mL
[2]; oral, period 0-20 minutes post-dose, Breakfast 30 min post-dose, read-out: Plasma 4-CNAB tmax
  Tmax: 19.8 min
[2]; [6]
  AUC: 2.9 µg·h/mL
  Cmax: 20.7 µg/mL
[2]; oral, period 0-20 minutes post-dose, Fasting, read-out: Plasma 4-CNAB tmax
  Tmax: 19.8 min
[2]; [7]
  AUC: 6.37 µg·h/mL
  Cmax: 24.6 µg/mL
[2]; oral, period 0-30 minutes post-dose, Breakfast 20 min post-dose, read-out: Plasma 4-CNAB tmax
  Tmax: 25.2 min
[2]; [8]
  AUC: 5.96 µg·h/mL
  Cmax: 24 µg/mL
[2]; oral, period 0-30 minutes post-dose, Breakfast 30 min post-dose, read-out: Plasma 4-CNAB tmax
  Tmax: 28.8 min
[2]; [9]
  AUC: 6.29 µg·h/mL
  Cmax: 21.5 µg/mL
[2]; oral, period 0-30 minutes post-dose, Fasting, read-out: Plasma 4-CNAB tmax
  Tmax: 23.4 min
[2]; [10]
  AUC: 16.5 µg·h/mL
  Cmax: 25 µg/mL
[2]; oral, period 0-3 hours post-dose, Breakfast 20 min post-dose, read-out: Plasma 4-CNAB tmax
  Tmax: 27.6 min
[2]; [11]
  AUC: 17.1 µg·h/mL
  Cmax: 24 µg/mL
[2]; oral, period 0-3 hours post-dose, Breakfast 30 min post-dose, read-out: Plasma 4-CNAB tmax
  Tmax: 30 min
[2]; [12]
  AUC: 18.3 µg·h/mL
  Cmax: 21.8 µg/mL
[2]; oral, period 0-3 hours post-dose, Fasting, read-out: Plasma 4-CNAB tmax
  Tmax: 26.4 min
[2]; [13]
  Cmax: 25 µg/mL
  AUC(0-inf): 18 µg·h/mL
  half-life: 39 min
[2]; po, 400 mg, 400 mg 4-CNAB/300 IU insulin oral, Breakfast 20 min post-dose, read-out: Plasma 4-CNAB tmax, Median (min-max)
  Tmax: 25.2 min
[2]; [14]
  Cmax: 24 µg/mL
  AUC(0-inf): 18.4 µg·h/mL
  half-life: 42 min
[2]; po, 400 mg, 400 mg 4-CNAB/300 IU insulin oral, Breakfast 30 min post-dose, read-out: Plasma 4-CNAB tmax, Median (min-max)
  Tmax: 30 min
[2]; [15]
  Cmax: 21.8 µg/mL
  AUC(0-inf): 20.7 µg·h/mL
  half-life: 51.6 min
[2]; po, 400 mg, 400 mg 4-CNAB/300 IU insulin oral, Fasting, read-out: Plasma 4-CNAB tmax, Median (min-max)
  Tmax: 25.2 min
[3]
  Absorption after oral administration: absorbed rapidly following oral administration, and subsequently cleared from the body
